This is an account of results in patent publication US20230114728A1 (Venatorx Pharmaceuticals, Inc., priority 2019, published 2023).

Holding throughout (format): cell-based
One experiment concerns N. gonorrhoeae WHO L. The experiment in a line: Liquid broth MIC in Fastidious broth. The settings on record: Neisseria gonorrhoeae; N. gonorrhoeae strain WHO L; Fastidious broth; read-out: Minimum Inhibitory Concentration, N. gonorrhoeae WHO L. In short, it runs like this: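 Colonies were swabbed from chocolate agar after 24 h growth and standardised by optical density at 600 nm. Compounds were serially diluted twofold in Fastidious broth, and bacteria added to give 5×10^5 CFU/mL. After about 24 h at 36 °C in 5% CO2, the lowest concentration allowing under 10% growth was taken as MIC.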

A further experiment relates to E. coli D22. The experiment in a line: Broth microdilution MIC in CAMHB. Conditions: Escherichia coli; E. coli D22 (hyper-permeable); MHB; read-out: Minimum Inhibitory Concentration, E. coli D22. In short, it runs like this:
(§1)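 Standard CLSI-style microdilution in cation-adjusted Mueller Hinton broth, 2-fold dilution series, incubated 16-20 h at 37° C; endpoint was visual absence of growth.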

The test system of experiment [1] is P. aeruginosa (ΔmexAB-oprM). Kind of experiment: Broth microdilution MIC in CAMHB. Conditions: Pseudomonas aeruginosa, read-out: Minimum Inhibitory Concentration, P. aeruginosa ΔmexAB-OprM. In short, it runs like this:
as §1

The test system of another experiment is E. coli 901C. The experiment in a line: Broth microdilution MIC in CAMHB. Conditions: Escherichia coli; E. coli 901C (hyper-permeable); MHB; read-out: Minimum Inhibitory Concentration, E. coli 901C. In short, it runs like this: as §1
A further experiment has as its system A. baumannii ATCC 19606. Kind of experiment: Broth microdilution MIC in CAMHB. The settings on record: Acinetobacter baumannii, ATCC19606; MHB; read-out: Minimum Inhibitory Concentration, A. baumannii ATCC 19606. In short, it runs like this:
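Per CLSI broth microdilution, colonies were grown 3-5 h at 37° C in cation-adjusted Mueller Hinton broth, then diluted to a starting inoculum of 2-8×10^5 CFU/mL against 2-fold serial compound dilutions. Plates were incubated 16-20 h at 37° C, and MIC was read visually as the lowest concentration with no growth.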

A further experiment has as its system E. coli ATCC 25922. The experiment in a line: Broth microdilution MIC in CAMHB. Conditions: Escherichia coli, ATCC25922; E. coli ATCC 25922; MHB; read-out: Minimum Inhibitory Concentration, E. coli 25922. In short, it runs like this:
as §1

Experiment [2] has as its system K. pneumoniae UMM producing SHV-5 and KPC-2. The experiment in a line: Broth microdilution MIC in CAMHB. The settings on record: Klebsiella pneumoniae, read-out: Minimum Inhibitory Concentration, K. pneumoniae UMM. In short, it runs like this: as §1
Another experiment relates to E. coli AG100A. Kind of experiment: Broth microdilution MIC in CAMHB. The settings on record: Escherichia coli, read-out: Minimum Inhibitory Concentration, E. coli AG100A. In short, it runs like this:
as §1

For experiment [3], the system named is K. pneumoniae SI-117 producing VIM-1. The experiment in a line: Broth microdilution MIC in CAMHB. Conditions: Klebsiella pneumoniae, read-out: Minimum Inhibitory Concentration, K. pneumoniae SI-117. In short, it runs like this: as §1
The test system of another experiment is E. coli AG100. The experiment in a line: Broth microdilution MIC in CAMHB. Conditions: Escherichia coli; E. coli AG100 (wild-type parent); MHB; read-out: Minimum Inhibitory Concentration, E. coli AG100. In short, it runs like this: as §1
In the next experiment the test system is P. aeruginosa ATCC 27853. Kind of experiment: Broth microdilution MIC in CAMHB. Conditions: Pseudomonas aeruginosa, ATCC27853; MHB; read-out: Minimum Inhibitory Concentration, P. aeruginosa ATCC 27853. In short, it runs like this: as §1
Experiment [4] relates to K. pneumoniae 848844 producing SHV-11 and KPC-2. The experiment in a line: Broth microdilution MIC in CAMHB. Conditions: Klebsiella pneumoniae, read-out: Minimum Inhibitory Concentration, K. pneumoniae 848844. In short, it runs like this: as §1
A further experiment deals with P. aeruginosa ATCC 35151. Kind of experiment: Broth microdilution MIC in CAMHB. Conditions: Pseudomonas aeruginosa, ATCC35151; MHB; hyper-permeable strain; read-out: Minimum Inhibitory Concentration, P. aeruginosa ATCC 35151. In short, it runs like this: as §1

≈ marks a conversion by molar mass, not a printed value.

As for `CCN1CCN(C(=O)NC(C(=O)N[C@H]2Cc3cccc(C(=O)O)c3OB2O)c2c(F)cc(N)cc2F)C(=O)C1=O` (stereo partly drawn) [Example 181, (3R)-3-(2-(4-amino-2,6-difluorophenyl)-2-(4-ethyl-2,3-dioxopiperazine-1-carboxamido)acetamido)-2-hydroxy-3,4-dihydro-2H-benzo[e][1,2]oxaborinine-8-carboxylic acid], the MIC with N. gonorrhoeae WHO L was 16 to 32 mg/L (≈ 28.6 to 57.2 µM); with E. coli D22, 2 to 4 mg/L (≈ 3.58 to 7.15 µM); in [1], 8 to 16 mg/L (≈ 14.3 to 28.6 µM); with E. coli 901C, below 0.25 mg/L; with A. baumannii ATCC 19606, above 128 mg/L; with E. coli ATCC 25922, 32 to 64 mg/L (≈ 57.2 to 114 µM). In addition, the MIC in experiment [2] was 32 to 64 mg/L (≈ 57.2 to 114 µM); with E. coli AG100A, 2 to 4 mg/L (≈ 3.58 to 7.15 µM); in [3], 32 to 64 mg/L (≈ 57.2 to 114 µM); in the experiment with E. coli AG100, 32 to 64 mg/L (≈ 57.2 to 114 µM); with P. aeruginosa ATCC 27853, above 128 mg/L; in experiment [4] it was above 128 mg/L. Besides, the MIC in the experiment with P. aeruginosa ATCC 35151 lay in the range of 0.5 to 1 mg/L (≈ 0.894 to 1.79 µM).
